How the values were obtained:
Parameters in all cases: species or system Tryporyza intacta
TintPBP1 = TintPBP1 (Scirpophaga excerptalis, UniProt A0A345D2V5); experiment: Fluorescence competitive binding assay with 1-NPN probe, TintPBP1; conditions: for Binding to TintPBP1 in competitive binding (in words): competitor 0.5–10.0 μM; for Ki: calculated from IC50, 1-NPN probe; for IC50: displacement of 1-NPN (2 μM), 25 °C
Method: (§1) To measure the affinities of the sex pheromones to TintPBP1-3 proteins, we used N-Phenyl-1-naphthylamine (1-NPN) as the fluorescent probe on a Hitachi F-4500 at 25 °C based on the method of Mao et al.[17]. 1-NPN was used as the fluorescent reporter (2 μM) and 0.5–10.0 μM for each competitor was used to test fluorescence competitive binding affinities of sex pheromones. Six compounds were selected and measured in competitive binding assays. The dissociation constant for 1-NPN and binding results were analyzed by Prism software. Each of IC50 values (concentrations of ligands halving the initial fluorescence value of 1-NPN) from competitors were calculated using following equation: Ki=[IC50]/1+[1−NPN]/K1−NPN, where [1-NPN] is the free concentration of 1-NPN and K1−NPN is the dissociation constant of the complex protein/1-NPN.

TintPBP3 = TintPBP3 (Scirpophaga excerptalis, UniProt A0A345D2V7); experiment: Fluorescence competitive binding assay with 1-NPN probe, TintPBP3; conditions: for Binding to TintPBP3 in competitive binding (in words): competitor 0.5–10.0 μM; for Ki: calculated from IC50, 1-NPN probe; for IC50: displacement of 1-NPN (2 μM), 25 °C
TintPBP3, sequence (A0A345D2V7 entry or part of it): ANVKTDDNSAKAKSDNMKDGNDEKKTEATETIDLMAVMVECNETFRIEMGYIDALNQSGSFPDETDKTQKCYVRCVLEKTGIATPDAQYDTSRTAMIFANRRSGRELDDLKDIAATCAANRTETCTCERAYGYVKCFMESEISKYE
Method: as §1

TintPBP2 = TintPBP2 (Scirpophaga excerptalis, UniProt A0A345D2V6); experiment: Fluorescence competitive binding assay with 1-NPN probe, TintPBP2; conditions: for Binding to TintPBP2 in competitive binding (in words): competitor 0.5–10.0 μM; for Ki: calculated from IC50, 1-NPN probe; for IC50: displacement of 1-NPN (2 μM), 25 °C
TintPBP2, sequence (A0A345D2V6 entry or part of it): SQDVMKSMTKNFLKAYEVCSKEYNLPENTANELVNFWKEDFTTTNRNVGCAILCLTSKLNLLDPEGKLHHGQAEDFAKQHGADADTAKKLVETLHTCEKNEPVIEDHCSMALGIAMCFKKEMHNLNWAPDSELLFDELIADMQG
Method: as §1

TintPBP1, sequence (A0A345D2V5 entry or part of it): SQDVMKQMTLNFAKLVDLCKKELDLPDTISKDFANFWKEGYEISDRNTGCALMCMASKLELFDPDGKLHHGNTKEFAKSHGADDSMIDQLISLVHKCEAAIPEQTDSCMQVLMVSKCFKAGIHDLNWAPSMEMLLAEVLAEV

Binding to TintPBP1 in competitive binding (in words) (TintPBP1) | Binding to TintPBP3 in competitive binding (in words) (TintPBP3) | Binding to TintPBP2 in competitive binding (in words) (TintPBP2) | Ki (TintPBP1) [µM] | IC50 (TintPBP1) [µM] | Ki (TintPBP3) [µM] | IC50 (TintPBP3) [µM] | Ki (TintPBP2) [µM] | IC50 (TintPBP2) [µM] | SMILES
cannot bind | cannot bind | cannot bind |  |  |  |  |  |  | CCCC/C=C\CCCCCCCCCCCCOC(C)=O [Z13–18:AC]
cannot bind | cannot bind | cannot bind |  |  |  |  |  |  | CCCC/C=C\CCCCCCCCCCO [Z11–16:OH]
 |  |  | 2.95 ± 0.04 | 4.27 ± 0.05 | 3.96 ± 0.28 | 4.66 ± 0.33 | 2.83 ± 0.11 | 3.81 ± 0.15 | CCCC/C=C\CCCCCCCCCC=O [Z11–16: Ald]
 |  |  | 2.15 ± 0.16 | 3.09 ± 0.22 | 3.45 ± 0.21 | 4.08 ± 0.24 | 3.58 ± 0.13 | 4.78 ± 0.17 | CCCC/C=C/CCCCCCCCCC=O [E11–16: Ald]
cannot bind | cannot bind | cannot bind |  |  |  |  |  |  | CCCC/C=C\CCCCCCCCCCOC(C)=O [Z11–16:AC]
cannot bind | cannot bind | cannot bind |  |  |  |  |  |  | CCCC/C=C\CCCCCCCCCCCCO [Z13–18:OH]
